Assay results taken from ChEMBL document CHEMBL1201862, “PubChem BioAssay data set” (2004).
Where “and” joins values, the source holds several entries; their conditions need not be identical. Identical values can stand only once. Calls of active or inactive are those of the source.

Columns and labels:
[1] = activation of miR-122 Renilla sensor silencing – cell-based, Huh7 psiCHECK-miR122, Renilla luciferase, cherry-picked, dose response (AID 651956); type: functional;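 note: huh7 hepatoma cells stably carrying a psiCHECK-2 miR-122 sensor plasmid; renilla luciferase signal reporting endogenous miR-122 activity after 48 h compound exposure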
[2] = general mammalian cell viability loss – activator set, cherry-pick, cytotoxicity control for miR-122 modulator project, dose response (AID 720690); type: functional, cell-based;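 note: HEK293T human cells scored for general mammalian cytotoxicity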
[3] = viability loss in A549 lung cells – cell-based, 24 h, CellTiter-Glo luminescence, cherry-picks, cytotoxicity control, dose response (AID 1053115); type: functional; settings: A549, 24 h
[4] = general mammalian cell viability loss – inhibitor set, cherry-pick, set 2, cytotoxicity control for miR-122 modulator project, dose response (AID 720697); type: functional, cell-based
[5] = blockers of FN fibrillogenesis by fibroblasts – AH1F cells, Alexa488-FN fluorescence, cherry-picks, dose response (AID 1035475); type: functional, cell-based
[6] = viability loss in HEK293 kidney cells – cell-based, cherry-picks, set 5, cytotoxicity control, dose response (AID 1053117); type: functional
[7] = molecular target: Metabotropic glutamate receptor 3 (Rattus norvegicus, UniProt P31422); assay: inhibition of rat mGlu3 glutamate signaling – HEK/GIRK cells, thallium flux, dose response (AID 651839); type: functional
Chain of Metabotropic glutamate receptor 3 (P31422 whole entry): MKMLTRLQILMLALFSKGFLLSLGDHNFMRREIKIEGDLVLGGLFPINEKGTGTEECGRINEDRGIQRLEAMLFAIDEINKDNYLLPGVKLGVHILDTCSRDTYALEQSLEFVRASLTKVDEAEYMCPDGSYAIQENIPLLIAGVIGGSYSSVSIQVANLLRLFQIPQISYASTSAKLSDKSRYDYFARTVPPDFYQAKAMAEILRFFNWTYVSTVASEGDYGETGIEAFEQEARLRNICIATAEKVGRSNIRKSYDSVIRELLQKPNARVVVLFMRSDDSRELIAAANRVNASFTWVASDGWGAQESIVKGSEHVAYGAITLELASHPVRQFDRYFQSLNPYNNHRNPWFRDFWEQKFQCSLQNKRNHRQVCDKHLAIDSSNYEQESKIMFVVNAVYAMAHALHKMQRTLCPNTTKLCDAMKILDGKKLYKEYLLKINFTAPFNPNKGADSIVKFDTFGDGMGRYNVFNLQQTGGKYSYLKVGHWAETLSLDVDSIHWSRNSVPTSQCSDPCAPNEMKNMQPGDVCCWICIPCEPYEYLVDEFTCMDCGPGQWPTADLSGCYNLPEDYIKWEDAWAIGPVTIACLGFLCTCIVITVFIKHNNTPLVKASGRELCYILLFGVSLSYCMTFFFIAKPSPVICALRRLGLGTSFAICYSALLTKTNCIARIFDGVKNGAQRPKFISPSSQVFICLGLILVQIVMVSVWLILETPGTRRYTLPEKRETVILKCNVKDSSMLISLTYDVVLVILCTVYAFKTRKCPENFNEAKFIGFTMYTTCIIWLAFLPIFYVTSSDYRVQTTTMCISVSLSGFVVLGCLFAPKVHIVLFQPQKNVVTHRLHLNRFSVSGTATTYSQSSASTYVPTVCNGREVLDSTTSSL

[8] = inhibitors of non-replicating M. tuberculosis, dose response, luciferase, dry powder (AID 651620); type: functional; settings: Mycobacterium tuberculosis
[9] = inhibitors of non-replicating M. tuberculosis, dose response, luciferase, dry powder (AID 651619); type: functional; settings: Mycobacterium tuberculosis
[10] = viability loss in CEM21 cells – cell-based, plate reader, dry powder, cytotoxicity control, dose response (AID 687026); type: functional
[11] = inhibition of Env-driven cell fusion – HIV entry, plate reader, dry powder, dose response (AID 687023); type: functional, cell-based
[12] = T. cruzi growth inhibition in host cells, dose response, cell-based, plate reader, dry powder, set 2 (AID 652275); type: functional
[13] = Trypanosoma cruzi replication inhibitors in host cells – cell-based, plate reader, dry powder samples, dose response (AID 651845); type: functional
[14] = anti-trypanosomal activity in BESM host cells – imaging, CA-I/72 strain, bovine embryo skeletal muscle, dry powder, dose response (AID 651885); type: functional, cell-based
[15] = molecular target: Metabotropic glutamate receptor 7 (Homo sapiens, UniProt Q14831); assay: potentiation of glutamate EC20 at mGlu7 – cell-based, calcium mobilization, Galpha15, dose response (AID 743384); type: functional
Chain of Metabotropic glutamate receptor 7 (Q14831 whole entry): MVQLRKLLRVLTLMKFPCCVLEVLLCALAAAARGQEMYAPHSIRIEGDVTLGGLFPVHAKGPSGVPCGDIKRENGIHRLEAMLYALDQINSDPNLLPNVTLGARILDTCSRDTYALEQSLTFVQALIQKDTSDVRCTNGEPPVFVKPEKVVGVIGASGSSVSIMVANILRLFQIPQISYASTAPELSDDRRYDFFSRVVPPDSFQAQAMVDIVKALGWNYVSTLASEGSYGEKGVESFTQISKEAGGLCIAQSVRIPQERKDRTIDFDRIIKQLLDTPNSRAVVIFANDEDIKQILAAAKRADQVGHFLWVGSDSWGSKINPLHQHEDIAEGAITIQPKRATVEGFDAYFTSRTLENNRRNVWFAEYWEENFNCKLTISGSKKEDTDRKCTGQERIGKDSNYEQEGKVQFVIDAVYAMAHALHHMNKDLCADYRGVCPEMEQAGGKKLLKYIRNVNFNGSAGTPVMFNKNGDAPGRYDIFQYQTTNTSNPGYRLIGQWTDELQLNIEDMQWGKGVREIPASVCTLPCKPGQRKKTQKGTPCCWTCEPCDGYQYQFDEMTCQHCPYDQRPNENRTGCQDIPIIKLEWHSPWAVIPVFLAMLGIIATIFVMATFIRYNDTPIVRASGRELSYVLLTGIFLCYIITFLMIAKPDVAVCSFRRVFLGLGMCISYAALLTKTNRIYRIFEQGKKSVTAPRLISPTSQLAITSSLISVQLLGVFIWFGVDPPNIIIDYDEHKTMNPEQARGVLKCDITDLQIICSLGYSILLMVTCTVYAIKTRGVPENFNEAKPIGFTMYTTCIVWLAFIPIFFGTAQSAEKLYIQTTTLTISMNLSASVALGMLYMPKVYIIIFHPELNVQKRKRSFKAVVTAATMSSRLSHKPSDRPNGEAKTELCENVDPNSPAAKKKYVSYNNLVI

In the case of `C[C@H](CO)N1C[C@H](C)[C@H](CN(C)Cc2ccc(-c3ccccc3)cc2)Oc2cc(C#C[C@@H](C)O)ccc2S1(=O)=O`, the AC50 [1] is reported as 37.3 µM (active), the AC50 [2] is reported as 12.3 µM (active) and the AC50 [3] is reported as 50.9 µM (active). The AC50 [4] was 2.82 µM (active).
For `C[C@H]1CN([C@@H](C)CO)C(=O)c2cc(NC(=O)C3CCCCC3)ccc2O[C@@H]1CN(C)Cc1ccc(-c2ccccc2)cc1`, the AC50 [5] was > 70 µM (inactive) and the AC50 [6] was 51.3 µM (active).
Work on `COc1ccc(-c2ccc3cc(C(=O)N4CCCC(CO)C4)ccc3c2)cc1OC` (stereo not given) yielded an IC50 [7] of 2.61 µM.
In the case of `[N-]=[N+]=NCCOCCNC(=O)CCCOc1ccc(C[S+]([O-])c2nnc(-c3ccc(F)cc3)o2)nc1` (stereo not given), the IC90 [8] is reported as 8 µM (active) and the IC90 [9] is reported as 8 µM (active).
In the case of `CCOc1ccc(S(=O)(=O)NCc2ccccc2)cc1`, the AC50 [10] is reported as > 70 µM (inactive) and the AC50 [11] is reported as 66.7 µM (active) and > 70 µM (inactive).
With `CC(C)N1C[C@@H](C)[C@H](CN(C)Cc2cccc(Oc3ccccc3)c2)Oc2c(NC(=O)c3ccncc3)cccc2C1=O` the AC50 [12] was 75 pM (active), the AC50 [13] was 0.00713 µM (active) and the IC50 [14] was 1.5 µM (inconclusive).
For `COC(=O)c1ccc(-n2c(C)cc(C(=O)CSCc3cccc(C)c3)c2C)cc1`, the EC50 [15] was 10 µM (active).
